Experimental data as given in US10105344B2, “Methods of reducing blood lactate concentration” (Stokely-Van Camp, Inc., priority 2010, dated 2018).

Key:
trained cyclists = experiment: Onset of blood lactate accumulation (OBLA) test, incremental cycling exercise; type: in vivo
Method: Two tests were performed to determine whether quercetin lowers blood lactate or improves maximal lactate steady state: a VO2PEAK test and an onset of blood lactate accumulation [OBLA] test. These tests were performed in a laboratory maintained at 20-25° C. and 35-40% relative humidity with the participants exercising on a Velotron bicycle trainer (Velotron Pro, RacerMate Inc, Seattle, Wash.) calibrated according to manufacturer's recommendations. VO2PEAK was determined using an incremental multistage cycling protocol: following a 10-min warm-up at 100 W, participants cycled at 150 W for five minutes then power output was increased by 50 W every three minutes until 250 W after which power output was increased by 25 W every minute until volitional exhaustion. Oxygen consumption (VO2) and carbon dioxide production (VCO2) were computed from expiratory gases collected and analyzed with a MOXUS metabolic cart (AEI Technologies, Pittsburgh, Pa.). OBLA was determined on a second occasion, separated from the measurement of VO2PEAK by at least seven days. The participants exercised for 3.5 minute stages at 55, 60, 65, 70, 75, 80, 85, and 90% VO2PEAK, and 3-mL blood samples were collected during the final 30 sec of each stage for measuring blood lactate concentration, OBLA was determined using curve fitting techniques and expressed as a percentage of VO2PEAK. OBLA was determined before and after 28 days of quercetin supplementation (1000 mg/d) contained in a 2% carbohydrate beverage with electrolytes and vitamins C and B3.

C2C12 cells = experiment: Muscle cell assay: lactate concentration in C2C12 cells after electrical pulse stimulation; type: cell-based, Mouse
Method: Mouse C2C12 myoblasts are purchased from American Type Culture Collection (ATCC; Manassas, Va.) and grown to 90% confluence in high glucose Dubecco's Modified Eagle media (DMEM) with 10% fetal bovine serum (FBS). Myoblasts from the purchased lot are grown in T75 flasks and subcultured >5 times prior to plating in collagen coated six-well plates for experimentation. To induce myotube differentiation FBS containing media is replaced with 2% horse serum containing media or serum free media for 5-7 days. Myoblasts are grown and myotubes are maintained with or without antibiotics in a 37° C., 5% CO2 incubator. Electrical pulsing is applied to the myotubes using a C-Pace EP Cell Culture Stimulator (IonOptix; Milton, Mass.). […] Immediately prior to stimulation, day old media is removed and replaced with 5 ml of fresh differentiation media. For incubation experiments, differentiated myotubes are pre-treated with quercetin and/or other compounds. Approximately 18 hours prior and again immediately before electrical pulse stimulation, DMEM containing 2% horse serum or serum free media is replaced with the same media containing quercetin or other test compounds at varying concentrations. Samples from media from resting and contracted cells (with and without compound incubation) is analyzed enzymatically for lactate with a modified method of Lowry and Passonneau (A Flexible System of Enzymatic Analysis, pages 194-199, Academic Press, INC. 1972 hereby incorporated by reference in its entirety.) The effect of quercetin on lactate concentration of muscle cells subjected to electrical pulse stimulation as generally described in Example 1 and Example 2 was studied. […] Media was changed every 24 hours. After 48 hours, growth media was replaced with AIM 5 differentiation media which was also changed every 24 hours. […] Lactate concentrations were measured with the Enzychrom L-Lactate Kit as follows. […] The optical density (OD0) was read for time “zero” at 565 nm and OD20 after a […] incubation at room temperature.

Structure (SMILES): O=c1c(O)c(-c2ccc(O)c(O)c2)oc2cc(O)cc(O)c12 [quercetin]
- improvement of the % VO2 Peak where the cyclist achieved a blood lactate concentration of 4 mmol (trained cyclists; after quercetin administration vs before, FIG. 1): about 3%
- % VO2 Peak to achieve a 4 mmol blood lactate concentration (trained cyclists; after quercetin administration, about 71% before, FIG. 1): about 73%
- cycling power output required to elicit a 4 mmol blood lactate (trained cyclists; endurance cyclists, after 28 days of quercetin administration (1000 mg/d), 244 W before): 250 W
- increase in cycling power output required to elicit a 4 mmol blood lactate (trained cyclists; endurance cyclists, before vs after 28 days of quercetin administration (1000 mg/d), FIG. 1): 6 watts (W)
- day 5 lactate concentration post stimulus (C2C12 cells; plate C (primed days 3 and 4, quercetin days 3, 4, 5) vs plate A without quercetin, 60 minutes low intensity stimulation (10V/0.5 hz/24 ms), FIG. 5): lower day 5 lactate concentration post stimulus
- day 5 lactate concentration post stimulus (C2C12 cells; plate D (primed days 3 and 4, quercetin days 3, 4, 5) vs plate B without quercetin, 60 minutes high intensity stimulation (10V/4 hz/2 ms), FIG. 6): lower day 5 lactate concentration post stimulus
- day 5 lactate concentration post stimulus (C2C12 cells; plate E (no priming, quercetin day 5 only) vs plate F without quercetin, 60 minutes high intensity stimulation (10V/4 hz/2 ms), FIG. 7): lower day 5 lactate concentration post stimulus
